Laboratory results from US20250160350A1, “BIOACTIVE MOLECULES IN YOGURT” (Phytoquest Limited, priority 2022, published 2025).
Counter-ions that a name gives are not always drawn. Like-named read-outs stand apart in the source and are kept apart here.

How the values were obtained:
[1] = test system: α-D-glucosidase Yeast; test: Glycosidase assay, α-D-glucosidase Yeast; assay type: biochemical; settings: negative value = activation
Experimental: (§1) Glycosidase assays. Most enzymes and para-nitrophenyl substrates were purchased from Sigma with the exception of human recombinant β-glucocerebrosidase (Cerezyme) obtained from Genzyme, Europe. Pure iminosugars which inhibit β-glucosidases (DMDP and calystegine B2) were used as controls. Yogurt samples were tested at 1 mg/ml. Enzymes were assayed at 27° C. in 0.1 M citric acid/0.2 M disodium hydrogen phosphate buffers at the optimum pH for the enzyme (pH 5.9 for Cerezyme). The incubation mixture consisted of 10 μL enzyme solution, 10 μL of 1 mg/mL aqueous inhibitor solution and 50 μL of the appropriate 5 mM para-nitrophenyl substrate made up in buffer at the optimum pH for the enzyme. Cerezyme was assayed against para-nitrophenyl (PNP) β-glucopyranoside. The reactions were stopped by addition of 70 μL 0.4 M glycine (pH 10.4) during the exponential phase of the reaction, which had been determined at the beginning using uninhibited assays in which water replaced inhibitor. Final absorbances were read at 405 nm using a Versamax microplate reader (Molecular Devices). Assays were performed in triplicate and the mean percentage inhibitions used. A negative value indicates enzyme activation.

[2] = test system: α-D-glucosidase Bacillus; test: Glycosidase assay, α-D-glucosidase Bacillus; assay type: biochemical; settings: 0.8 mM; negative value = activation
Experimental: as §1

[3] = test system: β-D-glucosidase almond; test: Glycosidase assay, β-D-glucosidase almond; assay type: biochemical; settings: negative value = activation
Experimental: as §1

[4] = molecular target: T1, α-D-galactosidase Green coffee (Coffea arabica, UniProt Q42656); test: Glycosidase assay, α-D-galactosidase Green coffee; assay type: biochemical; settings: 0.8 mM; negative value = activation
T1 construct: purchased Sigma
Experimental: as §1

[5] = test system: β-D-galactosidase bovine liver; test: Glycosidase assay, β-D-galactosidase bovine liver; assay type: biochemical; settings: 0.8 mM; negative value = activation
Experimental: as §1

[6] = molecular target: T2, human recombinant β-glucocerebrosidase (Cerezyme) (Homo sapiens, UniProt P04062, R534H); test: β-glucocerebrosidase assay (Cerezyme/imiglucerase, PNP β-glucopyranoside, pH 5.9); assay type: biochemical; settings: for % inhibition glucocerebrosidase (GC) Genzyme: 0.8 mM; for effect on β-glucocerebrosidase activity, in words: in vitro; for inhibition at 5000 µg/mL / % inhibition Cerezyme (β-glucocerebrosidase): Conc 5 mg/ml; for inhibition at 10000 µg/mL: Conc 10 mg/ml
T2 construct: purchased Genzyme, Europe
T2 sequence (P04062 40-536 R534H): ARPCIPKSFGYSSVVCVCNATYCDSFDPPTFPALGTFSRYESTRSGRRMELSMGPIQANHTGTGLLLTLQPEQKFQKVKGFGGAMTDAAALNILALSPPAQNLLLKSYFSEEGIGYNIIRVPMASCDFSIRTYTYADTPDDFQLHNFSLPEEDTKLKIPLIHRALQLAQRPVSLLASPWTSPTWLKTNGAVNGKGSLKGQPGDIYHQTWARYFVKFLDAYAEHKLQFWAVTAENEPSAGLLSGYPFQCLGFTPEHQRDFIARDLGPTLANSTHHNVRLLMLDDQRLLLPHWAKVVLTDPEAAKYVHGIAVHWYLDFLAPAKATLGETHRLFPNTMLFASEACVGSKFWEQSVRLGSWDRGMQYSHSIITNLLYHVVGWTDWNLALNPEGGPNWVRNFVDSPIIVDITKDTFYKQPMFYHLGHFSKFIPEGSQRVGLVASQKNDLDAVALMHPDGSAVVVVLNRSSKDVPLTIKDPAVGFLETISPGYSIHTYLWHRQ
Experimental: An exemplary assay is-uses human recombinant imiglucerase (obtained from Genzyme, Europe) and is conducted at 27° C. in 0.1 M citric acid/0.2 M disodium hydrogen phosphate buffer at pH 5.9. The incubation mixture consists of 10 μL of enzyme solution, 10 μL of aqueous solution of test material (e.g., yogurt, yogurt extract or isolated cyclic guanidine compound) at the required concentration and 50 μL of 5 mM para-nitrophenyl (PNP) B glucopyranoside (Sigma-Aldrich) made up in buffer at pH 5.9. The reactions are stopped by addition of 70 μL 0.4 M glycine (pH 10.4) during the exponential phase of the reaction, which is previously determined using uninhibited assays in which water replaces inhibitor. Final absorbances were read at 405 nm using a Versamax microplate reader (Molecular Devices). Assays are carried out in triplicate, and the values given are means of the three replicates per assay. A negative value indicates enzyme activation.
as §1, with “The reactions were stopped by addition of 70 μL 0.4 M glycine (pH 10.4) during the exponential phase of the reaction, which had been determined at the beginning using uninhibited assays in which water replaced inhibitor.” left out
Glycosidase Assays. β-glucocerebrosidase enzyme (Human recombinant imiglucerase, obtained from Genzyme, Europe) were carried at 27° C. in 0.1 M citric acid/0.2 M disodium hydrogen phosphate buffer at pH 5.9. The incubation mixture consisted of 10 μL of enzyme solution, 10 μL of aqueous solution of extract or compound at the required concentration and 50 μL of 5 mM para-nitrophenyl (PNP) β-glucopyranoside (Sigma-Aldrich) made up in buffer at pH 5.9. […] Final absorbances were read at 405 nm using a Versamax microplate reader (Molecular Devices). Assays were carried out in triplicate and the values given are means. Results are shown as % inhibition where a negative value indicates enzyme activation.
β-glucocerebrosidase enzyme (Human recombinant imiglucerase, obtained from Genzyme, Europe) were carried at 27° C. in 0.1 M citric acid/0.2 M disodium hydrogen phosphate buffer at pH 5.9. […] Final absorbances were read at 405 nm using a Versamax microplate reader (Molecular Devices). Assays were carried out in triplicate, and the values given are means of the three replicates per assay. A negative value indicates enzyme activation.

[7] = molecular target: T3, α-D-mannosidase Jack bean (Canavalia ensiformis, UniProt C0HJB3); test: Glycosidase assay, α-D-mannosidase Jack bean; assay type: biochemical; settings: 0.8 mM; negative value = activation
T3 construct: purchased Sigma
T3 sequence (C0HJB3 1-981): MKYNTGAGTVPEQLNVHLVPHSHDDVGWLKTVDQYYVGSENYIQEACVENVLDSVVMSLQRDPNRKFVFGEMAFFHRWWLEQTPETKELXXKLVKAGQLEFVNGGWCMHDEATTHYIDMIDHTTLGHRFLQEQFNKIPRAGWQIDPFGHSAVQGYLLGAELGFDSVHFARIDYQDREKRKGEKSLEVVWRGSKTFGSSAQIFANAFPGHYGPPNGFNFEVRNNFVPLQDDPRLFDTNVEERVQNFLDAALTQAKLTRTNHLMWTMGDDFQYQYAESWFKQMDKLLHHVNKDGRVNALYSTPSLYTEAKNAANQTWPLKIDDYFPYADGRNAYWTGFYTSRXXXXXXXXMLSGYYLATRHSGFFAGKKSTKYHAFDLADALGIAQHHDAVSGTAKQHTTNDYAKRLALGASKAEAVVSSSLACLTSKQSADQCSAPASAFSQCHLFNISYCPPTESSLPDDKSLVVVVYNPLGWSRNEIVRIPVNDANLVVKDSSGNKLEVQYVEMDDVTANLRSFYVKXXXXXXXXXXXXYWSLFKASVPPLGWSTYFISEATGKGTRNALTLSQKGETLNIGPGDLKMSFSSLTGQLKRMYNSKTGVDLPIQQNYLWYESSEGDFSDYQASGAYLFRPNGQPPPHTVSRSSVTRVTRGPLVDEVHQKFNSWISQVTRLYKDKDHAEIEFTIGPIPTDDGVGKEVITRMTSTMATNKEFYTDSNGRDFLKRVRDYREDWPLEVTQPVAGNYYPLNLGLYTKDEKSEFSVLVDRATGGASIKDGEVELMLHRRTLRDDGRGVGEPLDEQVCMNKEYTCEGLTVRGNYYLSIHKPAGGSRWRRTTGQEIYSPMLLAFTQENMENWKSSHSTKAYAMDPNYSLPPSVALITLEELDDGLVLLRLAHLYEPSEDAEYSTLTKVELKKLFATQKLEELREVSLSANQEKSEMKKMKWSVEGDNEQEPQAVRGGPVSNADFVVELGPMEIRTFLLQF
Experimental: as §1

[8] = test system: β-D-mannosidase C. fimi; test: Glycosidase assay, β-D-mannosidase C. fimi; assay type: biochemical; settings: 0.8 mM; negative value = activation
Experimental: as §1

[9] = test system: N-acetyl-β-D gluc Bovine kidney; test: Glycosidase assay, N-acetyl-β-D gluc Bovine kidney; assay type: biochemical; settings: negative value = activation; for % inhibition N-acetyl-β-D gluc Bovine kidney: 0.8 mM
Experimental: as §1

[10] = test system: N-acetyl-β-D-gluc Jack bean; test: Glycosidase assay, N-acetyl-β-D-gluc Jack bean; assay type: biochemical; settings: 0.8 mM; negative value = activation
Experimental: as §1

[11] = test system: α-D-glucosidase rat intestine; test: Glycosidase assay, α-D-glucosidase rat intestine; assay type: biochemical; settings: 0.8 mM; negative value = activation
Experimental: as §1

[12] = test system: GCase; settings: in vitro and in mice, tissue-specific (Sun et al. 2012); cited from earlier work
[13] = test system: GCase; settings: literature (Ambrosi et al. 2015); cited from earlier work
[14] = test system: GCase; settings: PD patients with and without GBA1 mutation; cited from earlier work
[15] = pH 5.9, negative value = activation

T1 sequence (Q42656 16-378): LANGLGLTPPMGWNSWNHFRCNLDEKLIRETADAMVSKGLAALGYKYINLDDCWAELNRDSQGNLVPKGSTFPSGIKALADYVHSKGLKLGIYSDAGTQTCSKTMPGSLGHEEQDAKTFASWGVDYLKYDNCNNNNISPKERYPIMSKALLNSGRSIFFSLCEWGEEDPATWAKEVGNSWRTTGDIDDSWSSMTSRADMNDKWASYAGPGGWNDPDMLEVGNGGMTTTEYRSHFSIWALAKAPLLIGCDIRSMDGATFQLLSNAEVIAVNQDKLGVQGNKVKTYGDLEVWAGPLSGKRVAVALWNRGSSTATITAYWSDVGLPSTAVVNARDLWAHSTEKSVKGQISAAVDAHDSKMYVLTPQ

Structure (SMILES): O[C@@H]1[C@@H](O)[C@H](O)[C@]2(O)CC[C@H]1N2 [Calystegine B2]
- % inhibition α-D-glucosidase Yeast ([1]; 0.8 mM): 18%
- % inhibition α-D-glucosidase Bacillus [2]: −5%
- % inhibition β-D-glucosidase almond ([3]; 0.8 mM): 96%
- % inhibition α-D-galactosidase Green coffee [4]: 99%
- % inhibition β-D-galactosidase bovine liver [5]: 44%
- % inhibition glucocerebrosidase (GC) Genzyme [6, 15]: 100%
- % inhibition α-D-mannosidase Jack bean [7]: 8%
- % inhibition β-D-mannosidase C. fimi [8]: −5%
- % inhibition N-acetyl-β-D gluc Bovine kidney [9]: 0%
- % inhibition N-acetyl-β-D-gluc Jack bean [10]: 0%
- % inhibition α-D-glucosidase rat intestine [11]: 22%

Structure (SMILES): CN1C(=N)NC[C@H]1C(=O)O [Compound 1, (S)-2-imino-3-methylimidazolidine-4-carboxylic acid]
- % inhibition α-D-glucosidase Yeast ([1]; 8 mM): 44%
- % inhibition β-D-glucosidase almond ([3]; 8 mM): 20%
- effect on β-glucocerebrosidase activity, in words [6]: strong promotion equalling that of the yogurt purified compound
- effect on β-glucocerebrosidase activity, in words ([6]; listed as (S)-2-imino-3-methylimidazolidine-4-carboxylic acid): effective at promoting the enzyme activity in vitro
- % inhibition N-acetyl-β-D-gluc Bovine kidney ([9]; 8 mM): 34%

Structure (SMILES): O=c1cc[nH]c(=O)[nH]1 [uracil]
- inhibition at 5000 µg/mL [6, 15]: 4.5%

Structure (SMILES): O=c1c(O)c(-c2ccc(O)c(O)c2)oc2cc(O)cc(O)c12 [quercetin]
- inhibition at 5000 µg/mL [6, 15]: 39.4%
- effect on β-glucocerebrosidase activity, in words [6]: inhibited the enzyme

Structure (SMILES): OC[C@H]1N[C@H](CO)[C@@H](O)[C@@H]1O [DMDP]
- % inhibition α-D-glucosidase Yeast ([1]; 0.8 mM): 100%
- % inhibition α-D-glucosidase Bacillus [2]: 93%
- % inhibition β-D-glucosidase almond ([3]; 0.8 mM): 97%
- % inhibition α-D-galactosidase Green coffee [4]: 7%
- % inhibition β-D-galactosidase bovine liver [5]: 99%
- % inhibition glucocerebrosidase (GC) Genzyme [6, 15]: 44%
- % inhibition α-D-mannosidase Jack bean [7]: 3%
- % inhibition β-D-mannosidase C. fimi [8]: 93%
- % inhibition N-acetyl-β-D gluc Bovine kidney [9]: −7%
- % inhibition N-acetyl-β-D-gluc Jack bean [10]: −7%
- % inhibition α-D-glucosidase rat intestine [11]: 77%

Structure (SMILES): Cn1cc(C(=O)O)ccc1=O [6-OH-trigonelline]
- % inhibition Cerezyme (β-glucocerebrosidase) [6, 15]: 8.6%

Structure (SMILES): NC(=O)c1cccnc1 [nicotinamide]
- inhibition at 5000 µg/mL [6, 15]: -11.3%

Structure (SMILES): OC[C@H]1CNC[C@@H](O)[C@@H]1O [isofagomine]
- GCase activity [12]: increase GCase activity in vitro and in mice

Structure (SMILES): O=C(O)/C=C/c1ccc(O)c(O)c1 [caffeic acid]
- inhibition at 5000 µg/mL [6, 15]: -1.8%

Structure (SMILES): Nc1ncnc2nc[nH]c12 [adenine]
- inhibition at 10000 µg/mL [6, 15]: -22%
- effect on β-glucocerebrosidase activity, in words [6]: some promotion activity but weaker than that seen with the yogurts

Structure (SMILES): O=C(O)c1cccnc1 [nicotinic acid]
- inhibition at 5000 µg/mL [6, 15]: -12.7%

Structure (SMILES): C[N+](C)(C)CC(=O)O [betaine]
- inhibition at 10000 µg/mL [6, 15]: 0.1%

Structure (SMILES): O=C(O)c1ccc(=O)[nH]c1 [6-OH-nicotinic acid]
- % inhibition Cerezyme (β-glucocerebrosidase) [6, 15]: −1.4%

Structure (SMILES): O=C(/C=C/c1ccc(O)c(O)c1)O[C@@H]1C[C@](O)(C(=O)O)C[C@@H](O)[C@H]1O [chlorogenic acid]
- inhibition at 5000 µg/mL [6, 15]: 57.1%
- effect on β-glucocerebrosidase activity, in words [6]: inhibited the enzyme

Structure (SMILES): Nc1cc[nH]c(=O)n1 [cytosine]
- inhibition at 10000 µg/mL [6, 15]: -1.6%

Structure (SMILES): C[n+]1cccc(C(=O)[O-])c1 [trigonelline]
- inhibition at 1000 µg/mL ([6]; Conc 1 mg/ml, pH 5.9, negative value = activation): 3.1%
- inhibition at 5000 µg/mL [6, 15]: -12.6%

Structure (SMILES): Nc1c(Br)cc(Br)cc1CN[C@H]1CC[C@H](O)CC1 [Ambroxol hydrochloride]
- GCase activity [13]: enhance GCase activity
- α-syn clearance [13]: increase α-syn clearance
- GCase activity in patients [14]: increased the GCase activity
